Reference: patent US20170022215A1, “Compounds for Eradicating or Inhibiting Proliferation of Cancer Stem Cells” (Godavari Biorefineries Limited, priority 2014, published 2017)

Experiments:
[1] = test system: CD44 expressing population (cancer stem cells) of DU145 cells; experiment: Flow cytometry analysis (anti-CD44-PE / anti-CD24-FITC staining) of DU145 prostate cancer cells; format: cell-based; conditions: IC25 drug conc.; for effect on CD44 expressing cell population of DU145 cells (quadrant plot): 48 hrs exposure; for activity on CD44 expressing cells (cancer stem cells population) of DU145 cancer cells compared to standard therapeutic drug Cisplatin: 48 hrs, bar graph FIG. 10, versus Cisplatin
Protocol: (§1) DU145 is a moderately metastatic prostate cancer cell line. Flow cytometry study was conducted to observe the effect of Ethyl-5-methyl-4-(phenylamino) thieno[2,3-d]pyrimidine-6-carboxylate and Ethyl-5-methyl-4-(4-methylphenyl)amino thieno[2,3-d]pyrimidine-6-carboxylate on DU145 cells compared to standard therapeutic drug Cisplatin.
(§2) 1. […] In the quadrant plot upper left region (Q2-UL) only CD44 expressing cells were observed. In the quadrant plot upper right region (Q2-UR) CD44 and CD24 expressing cells were observed. In the quadrant plot lower left region (Q2-LL) […]. In the quadrant plot lower right region (Q2-LR) […].

[2] = test system: CD44 expressing population (cancer stem cells) of MDA MB231 cells; experiment: Flow cytometry analysis (anti-CD44-PE / anti-CD24-FITC staining) of MDA MB231 breast cancer cells; format: cell-based; conditions: IC25 drug conc.; for effect on CD44 expressing cell population of MDA MB231 cells (quadrant plot): 48 hrs exposure; for activity on CD44 expressing cells (cancer stem cells population) of MDA MB231 cancer cells compared to standard therapeutic drug Cisplatin: 48 hrs, bar graph FIG. 5, versus Cisplatin
Protocol: as §1, with “MDA MB231” for “DU145”, “highly” for “moderately”, “breast” for “prostate”
as §2

Row | Structure (SMILES) | effect on CD44 expressing cell population of DU145 cells (quadrant plot) [1] | effect on CD44 expressing cell population of MDA MB231 cells (quadrant plot) [2] | activity on CD44 expressing cells (cancer stem cells population) of DU145 cancer cells compared to standard therapeutic drug Cisplatin [1] | activity on CD44 expressing cells (cancer stem cells population) of MDA MB231 cancer cells compared to standard therapeutic drug Cisplatin [2]
1 | N.N.[Cl][Pt][Cl] [Cisplatin, reference compound] | did not have much effect | did not have much effect | – | –
2 | CCOC(=O)c1sc2ncnc(Nc3ccc(C)cc3)c2c1C [Ethyl-5-methyl-4-(4-methylphenyl)amino thieno[2,3-d]pyrimidine-6-carboxylate] | marked effect | marked effect | much better and enhanced activity | much better and enhanced activity
3 | CCOC(=O)c1sc2ncnc(Nc3ccccc3)c2c1C [Ethyl-5-methyl-4-(phenylamino) thieno[2,3-d]pyrimidine-6-carboxylate] | marked effect | marked effect | much better and enhanced activity | much better and enhanced activity
